IC50 data for 15 compounds are collected here from patent publication US20230145835A1, “Modulators of Alpha-4-beta-7 Integrin and MAdCAM” (48HD Biopharma Inc., priority 2021, published 2023).

The IC50 is the point on the concentration scale where inhibition reaches its midpoint.

Numbered stars: 1 amine (or outer) side, 2 acyl side, 3 side chain; on linkers, the order of the positions; unused ones are H or OH. Bridge positions count the residues as written; N and C are the ends. Square brackets hold non-standard residues; d marks the D form. Peptide text beside a SMILES is read from it. X12 = NC(=O)CC[C@@H](N[*:1])C(=O)C[C@@H](Cc1cnc[nH]1)C(=O)[*:2]; X13 = O=C(/C=N/OCCCCCCOC1=CC(C[*:3])=CC(C[*:2])C1)[*:1]; X3 = O=C(/C=N/OCCCCCCOc1cc(C[*:2])cc(C[*:3])c1)[*:1]; dMet(O) = CS(=O)CC[C@@H](N)C(=O)O; aIle = CC[C@@H](C)[C@H](N)C(=O)O; tBuAla = CC(C)(C)C[C@H](N)C(=O)O; Cba = N[C@@H](CC1CCC1)C(=O)O; Nle = CCCC[C@H](N)C(=O)O

The experiment addresses T1, rh-integrin α4β7/LPAM-1 (Homo sapiens, UniProt P13612+P26010).
T1 sequence (P13612 34-977 limits assumed): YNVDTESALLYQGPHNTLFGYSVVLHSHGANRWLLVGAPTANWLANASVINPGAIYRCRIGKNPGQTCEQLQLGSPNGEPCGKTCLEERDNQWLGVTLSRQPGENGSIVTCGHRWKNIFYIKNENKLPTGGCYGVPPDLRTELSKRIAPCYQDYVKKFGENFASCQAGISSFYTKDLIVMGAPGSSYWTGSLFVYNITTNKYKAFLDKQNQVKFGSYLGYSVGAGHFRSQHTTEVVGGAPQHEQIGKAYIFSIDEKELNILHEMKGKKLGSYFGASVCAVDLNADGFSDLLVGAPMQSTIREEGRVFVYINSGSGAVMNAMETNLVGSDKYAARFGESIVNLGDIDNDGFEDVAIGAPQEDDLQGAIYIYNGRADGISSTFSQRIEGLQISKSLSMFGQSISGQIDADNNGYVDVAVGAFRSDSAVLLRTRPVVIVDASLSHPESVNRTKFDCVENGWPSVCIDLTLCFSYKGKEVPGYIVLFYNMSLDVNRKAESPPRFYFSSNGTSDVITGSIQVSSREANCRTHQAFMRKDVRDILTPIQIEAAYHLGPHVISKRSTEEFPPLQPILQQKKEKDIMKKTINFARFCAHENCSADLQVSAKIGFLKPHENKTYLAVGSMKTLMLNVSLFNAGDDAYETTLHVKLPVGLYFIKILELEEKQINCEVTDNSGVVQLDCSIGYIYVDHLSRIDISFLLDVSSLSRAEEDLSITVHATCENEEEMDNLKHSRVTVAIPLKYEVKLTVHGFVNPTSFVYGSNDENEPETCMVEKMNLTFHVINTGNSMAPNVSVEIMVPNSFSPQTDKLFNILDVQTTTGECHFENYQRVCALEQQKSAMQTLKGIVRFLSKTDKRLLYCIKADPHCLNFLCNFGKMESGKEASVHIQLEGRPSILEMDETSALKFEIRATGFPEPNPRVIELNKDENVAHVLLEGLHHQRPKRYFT
T1 sequence (P26010 20-723 limits assumed): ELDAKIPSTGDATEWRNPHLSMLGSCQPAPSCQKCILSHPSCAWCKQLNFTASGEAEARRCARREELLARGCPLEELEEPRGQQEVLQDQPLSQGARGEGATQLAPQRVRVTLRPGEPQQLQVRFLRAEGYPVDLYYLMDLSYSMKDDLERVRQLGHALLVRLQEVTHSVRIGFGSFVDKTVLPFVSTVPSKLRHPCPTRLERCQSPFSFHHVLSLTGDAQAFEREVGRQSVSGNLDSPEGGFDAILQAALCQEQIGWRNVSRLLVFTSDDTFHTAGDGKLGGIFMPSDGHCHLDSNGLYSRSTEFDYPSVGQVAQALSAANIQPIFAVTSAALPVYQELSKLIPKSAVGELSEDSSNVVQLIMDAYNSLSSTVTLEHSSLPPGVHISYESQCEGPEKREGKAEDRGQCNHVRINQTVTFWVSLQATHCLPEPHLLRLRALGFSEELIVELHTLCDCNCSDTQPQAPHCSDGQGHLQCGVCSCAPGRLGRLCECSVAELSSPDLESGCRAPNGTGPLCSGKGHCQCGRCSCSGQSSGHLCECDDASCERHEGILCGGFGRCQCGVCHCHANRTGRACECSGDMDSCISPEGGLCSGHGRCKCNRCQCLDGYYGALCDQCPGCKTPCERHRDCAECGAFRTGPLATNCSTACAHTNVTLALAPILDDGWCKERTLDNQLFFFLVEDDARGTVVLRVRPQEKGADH
The experiment is described as follows: α4β7-MadCAM Competition ELISA (Example 4). Conditions: Table 3 Representative compounds; inhibition of MAdCAM binding to coated α4β7; read-out: IC50. It is filed as binding. As to the method:
After washing with wash buffer, 200 μL assay buffer was added to each well and incubated for one hour at 28° C. After another wash with wash buffer, 100 μL of a MAdCAM and peptide mixture in assay buffer was added to each well and incubated for one hour at 28° C., followed by washing with wash buffer.

As to `CCCC[C@@H]1NC(=O)[C@@H]2CCCN2C(=O)[C@@H]2CSCc3cc(cc(c3)OCCCCCCO/N=C/C(=O)N[C@@H](CCCNC(=N)N)C(=O)N2)CSC[C@@H](C(N)=O)NC(=O)[C@H](CCC(=O)O)NC(=O)[C@H](CCC(N)=O)NC(=O)[C@H](Cc2c[nH]c3ccccc23)NC(=O)[C@H](CC2CCC2)NC(=O)[C@H](CC(=O)O)NC1=O` [compound 55, TSL6-SRCP{Nle}D {CbA}WQEC] (RCP[Nle]D[Cba]WQEC-NH2; linker N-2-10 via X3), the IC50 worked out at 3.45 µM.

Consider `CC(C)(C)C[C@@H]1NC(=O)[C@H](CC(=O)O)NC(=O)[C@H](CC2CCC2)NC(=O)[C@@H]2CCCN2C(=O)[C@@H]2CSCc3cc(cc(c3)OCCCCCCO/N=C/C(=O)N[C@@H](CCCNC(=N)N)C(=O)N2)CSC[C@@H](C(N)=O)NC(=O)[C@H](CCC(=O)O)NC(=O)[C@H](CCC(N)=O)NC(=O)[C@H](Cc2c[nH]c3ccccc23)NC1=O` [compound 56, TSL6-SRCP{CbA}D {tBuAla}WQEC] (RCP[Cba]D[tBuAla]WQEC-NH2; linker N-2-10 via X3), for which the concentration for half-maximal inhibition (IC50) stood at 3.89 µM. For `C[C@@H]1NC(=O)/C=N/OCCCCCCOC2=CC3=CC(CSC[C@H](NC1=O)C(=O)N[C@@H](C)C(=O)N[C@@H](Cc1c[nH]c4ccccc14)C(=O)N[C@@H](Cc1cnc[nH]1)C(=O)N[C@H](CCC(N)=O)C(=O)C[C@@H](Cc1cnc[nH]1)C(=O)N[C@@H](C)C(=O)N[C@H](C(N)=O)CSC3)C2` [compound 57, TSL6- SACAWHQHAC] (ACAWH[X12]AC-NH2; linker N-2-8 via X13), the IC50 was found to be 3.89 µM. As for `CC(C)[C@@H]1NC(=O)[C@H](CC(=O)O)NC(=O)[C@H](CC(C)(C)C)NC(=O)[C@@H]2CCCN2C(=O)[C@@H]2CSCc3cc(cc(c3)OCCCCCCO/N=C/C(=O)N[C@@H](CCCNC(=N)N)C(=O)N2)CSC[C@@H](C(N)=O)NC(=O)[C@H](CCC(=O)O)NC(=O)CNC(=O)[C@H](Cc2c[nH]c3ccccc23)NC1=O` [compound 58, TSL6- SRCP{tBuAla} DVWGEC] (RCP[tBuAla]DVWGEC-NH2; linker N-2-10 via X3), the figure is 4.01 µM; as for `CC(C)C[C@@H]1NC(=O)[C@H](C)NC(=O)[C@@H]2CSCc3cc(cc(c3)OCCCCCCO/N=C/C(=O)N[C@@H](CCCCN)C(=O)N2)CSC[C@@H](C(N)=O)NC(=O)[C@H](CO)NC(=O)[C@@H]2CCCN2C(=O)[C@H](C(C)C)NC(=O)[C@H](CC(=O)O)NC1=O` [compound 59, TSL6- SKCALDVPSC] (KCALDVPSC-NH2; linker N-2-9 via X3), 4.01 µM; as for `C[C@@H](O)[C@@H]1NC(=O)[C@H](Cc2ccccc2)NC(=O)[C@H](CCCCN)NC(=O)[C@H](CC(=O)O)NC(=O)[C@H](Cc2cnc[nH]2)NC(=O)[C@@H]2CSCc3cc(cc(c3)OCCCCCCO/N=C/C(=O)N[C@@H](CO)C(=O)N2)CSC[C@@H](C(N)=O)NC(=O)[C@H](CCC(=O)O)NC1=O` [compound 60, TSL6- SDCHDKFTEC] (SCHDKFTEC-NH2; linker N-2-9 via X3), 5.43 µM. Under `CSCC[C@@H]1NC(=O)[C@@H]2CCCN2C(=O)[C@@H]2CSCc3cc(cc(c3)OCCCCCCO/N=C/C(=O)N[C@@H](C)C(=O)N2)CSC[C@@H](C(N)=O)NC(=O)[C@H](CCC(=O)O)NC(=O)CNC(=O)[C@H](C)NC(=O)[C@H](C(C)C)NC(=O)[C@H](CC(=O)O)NC1=O` [compound 61, TSL6- SACPMDVAGEC] (ACPMDVAGEC-NH2; linker N-2-10 via X3) stands 5.98 µM; under `CSCC[C@@H]1NC(=O)[C@@H]2CCCN2C(=O)[C@@H]2CSCc3cc(cc(c3)OCCCCCCO/N=C/C(=O)N[C@@H](C)C(=O)N2)CSC[C@@H](C(N)=O)NC(=O)[C@H](CCC(=O)O)NC(=O)[C@H](CCC(N)=O)NC(=O)[C@H](Cc2c[nH]c3ccccc23)NC(=O)[C@H](C(C)C)NC(=O)[C@H](CC(=O)O)NC1=O` [compound 62, TSL6- SDCHDPPKVC] (ACPMDVWQEC-NH2; linker N-2-10 via X3), 6.42 µM.

Regarding `CC(C)C[C@@H]1NC(=O)/C=N/OCCCCCCOc2cc3cc(c2)CSC[C@H](NC1=O)C(=O)N[C@@H](Cc1ccc(O)cc1)C(=O)N[C@@H](CCC(=O)O)C(=O)N[C@@H](Cc1c[nH]c2ccccc12)C(=O)N[C@H](CCC(=O)O)C(=O)N[C@@H](Cc1cnc[nH]1)C(=O)N[C@@H](C)C(=O)N[C@H](C(N)=O)CSC3` [compound 63, TSL6- SLCYEWEHAC] (LCYEW[dE]HAC-NH2; linker N-2-9 via X3), the IC50 turned out to be 7.95 µM.

Turning to `CSCC[C@@H]1NC(=O)[C@H](CO)NC(=O)[C@H](CC(=O)O)NC(=O)[C@@H]2CCCN2C(=O)[C@@H]2CSCc3cc(cc(c3)OCCCCCCO/N=C/C(=O)N[C@@H](CC(=O)O)C(=O)N2)CSC[C@@H](C(N)=O)NC(=O)[C@H](CO)NC(=O)[C@H](Cc2cnc[nH]2)NC(=O)[C@H](C)NC1=O` [compound 65, TSL6- SDCPDSMAHSC] (DCPDSMAHSC-NH2; linker N-2-10 via X3), the IC50 stood at 13.8 µM. As for `CC[C@@H](C)[C@@H]1NC(=O)/C=N/OCCCCCCOc2cc3cc(c2)CSC[C@H](NC1=O)C(=O)N[C@@H](CCCNC(=N)N)C(=O)N[C@@H]([C@@H](C)O)C(=O)N[C@@H](CC(=O)O)C(=O)N[C@@H](C(C)C)C(=O)N1CCC[C@H]1C(=O)N[C@@H]([C@@H](C)CC)C(=O)N[C@@H](CC(=O)O)C(=O)N[C@H](C(N)=O)CSC3` [compound 66, TSL6- SICRTDVPIDC] ([aIle]CRTDVPIDC-NH2; linker N-2-10 via X3), the IC50 was 14.4 µM. Take `C[C@@H]1NC(=O)[C@H](CC(=O)O)NC(=O)[C@@H](CC[S+](C)[O-])NC(=O)[C@@H]2CCCN2C(=O)[C@@H]2CSCc3cc(cc(c3)OCCCCCCO/N=C/C(=O)N[C@@H](CCC(N)=O)C(=O)N2)CSC[C@@H](C(N)=O)NC(=O)[C@H]([C@@H](C)O)NC(=O)[C@@H]2CCCN2C1=O` (stereo partly drawn) [compound 67, TSL6-SQCP{Ox-Met}DAPTC] (QCP[dMet(O)]DAPTC-NH2; linker N-2-9 via X3): the IC50 worked out at 15.7 µM.

Consider `CCCC[C@@H]1NC(=O)[C@H](CO)NC(=O)[C@H](CCCNC(=N)N)NC(=O)[C@@H]2CSCC(=O)N[C@@H](CCCNC(=N)N)C(=O)N[C@@H](CSSC[C@@H](C(=O)N[C@@H](Cc3c[nH]c4ccccc34)C(=O)N[C@@H](CCC(N)=O)C(N)=O)NC(=O)[C@H](CC(C)C)NC(=O)[C@@H](CC(=O)O)NC1=O)C(=O)N[C@@H](CO)C(=O)N[C@@H](CC(=O)O)C(=O)N[C@@H]([C@@H](C)O)C(=O)N[C@@H](CC(C)C)C(=O)N2` [compound 68] ({CH2CO}-RCSDTLCRS[Nle][dD]LCWQ-NH2; disulfide 2-13; thioether N-7), for which the IC50 was 15.9 µM. Under `CCCC[C@@H]1NC(=O)[C@H](CO)NC(=O)[C@@H]2CSSC[C@@H](C(=O)N[C@@H](Cc3c[nH]c4ccccc34)C(=O)N[C@@H](CCC(N)=O)C(N)=O)NC(=O)[C@H](C(C)C)NC(=O)[C@@H](CC(=O)O)NC(=O)[C@H](CC(C)C)NC(=O)[C@H](CO)NC(=O)[C@H](CCCNC(=N)N)NC(=O)[C@H](CSCC(=O)N[C@@H](CCCNC(=N)N)C(=O)N2)NC(=O)[C@H]([C@@H](C)CC)NC(=O)[C@H](CC(=O)O)NC1=O` [compound 70, Disulfide- RCS{Nle}DICRS LDVCWQ] ({CH2CO}-RCS[Nle]DICRSL[dD]VCWQ-NH2; disulfide 2-13; thioether N-7) stands 19.7 µM; under `C[C@@H](O)[C@@H]1NC(=O)[C@H](CC(=O)O)NC(=O)[C@@H]2CCCN2C(=O)[C@H](Cc2ccc(O)cc2)NC(=O)[C@@H]2CSCc3cc(cc(c3)OCCCCCCO/N=C/C(=O)N[C@@H](CCC(=O)O)C(=O)N2)CSC[C@@H](C(N)=O)NC(=O)[C@H](Cc2cnc[nH]2)NC(=O)[C@H](Cc2ccc(O)cc2)NC1=O` [compound 71, TSL6- SECYPDTYHC] (ECYPDTYHC-NH2; linker N-2-9 via X3), 20.2 µM.
